The values that follow come from patent US20190008779A1, “GEMCABENE COMPOSITIONS AND METHODS OF USE THEREOF” (GEMPHIRE THERAPEUTICS INC., priority 2017, published 2019).

One data set concerns the target T1, HMG-CoA reductase (Homo sapiens, UniProt P04035).
T1 sequence (P04035 1-888): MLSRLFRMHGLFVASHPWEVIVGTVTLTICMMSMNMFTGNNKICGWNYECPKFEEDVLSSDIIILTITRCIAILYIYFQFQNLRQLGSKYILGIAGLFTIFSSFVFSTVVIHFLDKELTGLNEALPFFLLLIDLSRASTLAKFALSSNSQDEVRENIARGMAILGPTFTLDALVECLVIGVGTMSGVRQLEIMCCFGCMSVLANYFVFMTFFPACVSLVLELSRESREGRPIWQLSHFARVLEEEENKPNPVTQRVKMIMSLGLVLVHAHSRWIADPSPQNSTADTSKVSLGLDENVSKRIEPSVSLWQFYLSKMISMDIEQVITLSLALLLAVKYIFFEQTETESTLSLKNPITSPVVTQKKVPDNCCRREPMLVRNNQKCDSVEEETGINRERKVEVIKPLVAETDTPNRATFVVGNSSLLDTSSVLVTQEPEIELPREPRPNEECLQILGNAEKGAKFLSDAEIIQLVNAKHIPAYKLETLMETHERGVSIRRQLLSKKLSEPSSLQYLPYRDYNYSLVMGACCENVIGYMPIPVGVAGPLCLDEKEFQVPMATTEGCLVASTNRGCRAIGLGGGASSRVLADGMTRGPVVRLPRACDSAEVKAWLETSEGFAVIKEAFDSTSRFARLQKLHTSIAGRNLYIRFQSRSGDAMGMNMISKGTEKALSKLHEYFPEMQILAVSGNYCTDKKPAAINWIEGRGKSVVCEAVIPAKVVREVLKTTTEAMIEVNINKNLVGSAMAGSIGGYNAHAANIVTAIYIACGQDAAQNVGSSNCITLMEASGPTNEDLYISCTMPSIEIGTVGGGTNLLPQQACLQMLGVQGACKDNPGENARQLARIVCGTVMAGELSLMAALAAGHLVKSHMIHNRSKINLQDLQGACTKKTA
The note with it: cited from earlier work.

Data set [1] in a line: Pharmacokinetic analysis after a single oral dose to male dogs (plasma atorvastatin, metabolites, gemcabene). The class given is in vivo, beagle dogs. The note with it: administered in the absence of atorvastatin calcium versus with atorvastatin calcium (FIG. 15).
For data set [2] the following is noted: in vivo; cited from earlier work.
Data set [3] has as its system hypercholesterolemic human subjects. The note with it: cited from earlier work.

Like-named read-outs stand apart in the source and are kept apart here.

As for `CC(C)c1c(C(=O)Nc2ccc(O)cc2)c(-c2ccccc2)c(-c2ccc(F)cc2)n1CCC1CC(O)CC(=O)O1` (centres unmarked) [4-hydroxy-atorvastatin lactone], the “pharmacological activity (inhibitory activity on HMG-CoA reductase)” value on HMG-CoA reductase is “pharmacologically inactive”.

Consider `CC(C)c1c(C(=O)Nc2ccc(O)cc2)c(-c2ccccc2)c(-c2ccc(F)cc2)n1CC[C@@H](O)C[C@@H](O)CC(=O)O` [4-hydroxy-atorvastatin acid], for which the “pharmacological activity (inhibitory activity on HMG-CoA reductase)” value at HMG-CoA reductase is recorded as “pharmacologically equipotent to parent atorvastatin”; at HMG-CoA reductase (listed as 4-hydroxy-atorvastatin), “active towards HMG-CoA reductase”.

Regarding `CC(C)(CCCCOCCCCC(C)(C)C(=O)O)C(=O)O` [gemcabene calcium, 6,6′-oxybis(2,2-dimethylhexanoic acid)], in data set [1], the “pharmacokinetic profile of gemcabene” value was “essentially the same”. The “effect on the pharmacokinetics of simvastatin and atorvastatin” value in data set [2] is given as “not to significantly affect”. In data set [3] (patients having type IIb hyperlipidemia, certain doses with a statin, versus either alone), the triglycerides result is given as “surprising ability to lower triglycerides”. Further, in data set [3] (patients on a stable dose of statin not able to reach the target LDL-C goal), the LDL-C levels result is on record as “further reduce LDL-C levels”. Also, in data set [3] (separate administration with a statin, versus a statin alone), the “plasma levels of LDL cholesterol (LDL-C)” value is given as “significantly reduce”. In addition, the fibrinogen result in data set [3] (some doses with a statin, hypercholesterolemic human subjects with elevated fibrinogen levels) is “lower fibrinogen”. Further, the c-reactive protein result in data set [3] (with a statin, versus statin treatment alone) is listed as “reduce c-reactive protein to an extent greater than the statin treatment alone”.

Consider `CC(C)c1c(C(=O)Nc2ccccc2O)c(-c2ccccc2)c(-c2ccc(F)cc2)n1CCC(O)CC(O)CC(=O)O` (centres unmarked) [2-hydroxy-atorvastatin acid], for which the “pharmacological activity (inhibitory activity on HMG-CoA reductase)” value at HMG-CoA reductase is on record as “pharmacologically equipotent to parent atorvastatin”; on HMG-CoA reductase (listed as 2-hydroxy-atrovastatin) it was “active towards HMG-CoA reductase”.

With `CC(C)c1c(C(=O)Nc2ccccc2O)c(-c2ccccc2)c(-c2ccc(F)cc2)n1CCC1CC(O)CC(=O)O1` (centres unmarked) [2-hydroxy-atorvastatin lactone], the “pharmacological activity (inhibitory activity on HMG-CoA reductase)” value at HMG-CoA reductase is “pharmacologically inactive”.

Turning to `CC(C)c1c(C(=O)Nc2ccccc2)c(-c2ccccc2)c(-c2ccc(F)cc2)n1CC[C@@H]1C[C@@H](O)CC(=O)O1` [atorvastatin lactone], the “pharmacological activity (inhibitory activity on HMG-CoA reductase)” value at HMG-CoA reductase is “pharmacologically inactive”.
